Laboratory results taken from US7446127B2, “Chroman carboxylic acid derivatives for the treatment of diabetes and lipid disorders” (SK Holdings Co, Ltd., priority 2003, dated 2008).

Tests used:
[1] = Solubility in dosing vehicle; type: physicochemical
From the text: It appeared that compounds of Examples 1 and 2 were not soluble in 0.5% CMC vehicle.

db/db mice [2] = test: Oral Glucose Tolerance Test (OGTT) in db/db mice; type: in vivo; settings: 30 mg/kg/d for 9 days
Description: (§1) Mice used in this study were standard model of type II diabetes developed by Jackson Laboratories (Bar Harbor, Me.). Male, 8-week-old db/db mice were housed six per cage in hanging wire bottom cages with standard laboratory conditions. The mice had free access to normal chow (Purina Rodent Chow) and water. At the age of 11-12 weeks, mice were bled in the tail for glucose matching among the groups (n=6 per group). The grouped mice were then dosed orally with vehicle (CMC) or with compounds of formula I (30 mg/kg/d) for 7 days. Compound of formula I at 30 mg/kg/d was dosed as suspension in 0.5% CMC+0.2% Tween 80 in H2O. Fresh suspension was prepared for 8 days dosing and kept in a refrigerator. The suspension was administered by oral gavage daily in the morning. The control group received vehicle (dose 10 mL/kg). Blood glucose concentrations were monitored at basal and 3 hr post dose on day 4 and 8. For blood sampling, mice were placed in a restrainer and drop of blood was obtained by nick in the tip of the tail. Blood glucose concentrations were determined either by putting a drop of blood on a glucose strip for analysis by a glucometer or using a 10 μL plasma sample in a YSI (Yellow Spring Instruments, OH) analyzer. Results are expressed as absolute blood glucose concentrations (mg/dL) and % reduction that is achieved reduction relative to vehicle treated control group. Animals having more than 300 mg/dL of blood glucose were used for testing. Statistical significance (p<0.05) is given versus the appropriate sample in vehicle treated animals. On day 7, the mice were fasted overnight for 18 hrs and were bled in the tail for the glucose level checking then dosed with the testing compounds (30 mg/kg/d). After 2 hr, blood samples were taken and the rats were dosed with 10% glucose in water (10 ml/kg) orally and blood glucose was monitored at 15, 30, 60, 90 and 120 min after dosing. The blood samples were centrifuged and plasma samples were collected and analyzed for insulin, Tg and FFA. An Oral Glucose Tolerance Test (OGTT) was performed both in db/db mice and in high fat (HF) rats after dosing 30 mg/kg/d of compounds of Examples 1 and 2 for 9 days. For OGTT and ITT studies, Sprague-Dawley rats were prepared by feeding high fat (HF) diet (60% calorie from fat) for 6 weeks. Before the study, they were matched into groups on the basis of blood glucose levels.

high fat (HF) rats = test: Oral Glucose Tolerance Test (OGTT) in high fat (HF) rats; type: in vivo, Sprague-Dawley rats; settings: 30 mg/kg/d for 9 days
Description: (§2) An Oral Glucose Tolerance Test (OGTT) was performed both in db/db mice and in high fat (HF) rats after dosing 30 mg/kg/d of compounds of Examples 1 and 2 for 9 days. For OGTT and ITT studies, Sprague-Dawley rats were prepared by feeding high fat (HF) diet (60% calorie from fat) for 6 weeks. Before the study, they were matched into groups on the basis of blood glucose levels.

[3] = test system: differentiated 3T3-L1 adipocytes; test: Glucose transport assay (2-deoxy-D-glucose uptake); type: cell-based
STZ rat = test: Blood glucose lowering effect in STZ rat; type: in vivo; settings: STZ rat (data not shown)
db/db mice [4] = test: Efficacy test for blood glucose lowering (db/db mice); type: in vivo; settings: 30 mg/kg/d oral
Description: as §1, with “FFA.” for “FFA. An Oral Glucose Tolerance Test (OGTT) was performed both in db/db mice and in high fat (HF) rats after dosing 30 mg/kg/d of compounds of Examples 1 and 2 for 9 days. For OGTT and ITT studies, Sprague-Dawley rats were prepared by feeding high fat (HF) diet (60% calorie from fat) for 6 weeks. Before the study, they were matched into groups on the basis of blood glucose levels.”

[5] = test system: differentiated 3T3-L1 adipocytes; test: Glucose transport assay (2-deoxy-D-glucose uptake); type: cell-based; settings: 48 hr
Description: 3T3-L1 fibroblasts (American Type Culture Collection) were plated and grown for 2 days postconfluence in Dulbecco's modified Eagle's medium (DMEM; 4,500 mg/L glucose, HyClone) supplemented 10% FBS, 10 μg/mL penicillin and streptomycin in an atmosphere of 5% CO2 at 37° C. Adipocyte differentiation was then induced using standard protocol. After 48 hr, the differentiation medium was replaced with maintenance medium containing DMEM supplemented with 10% FBS. The maintenance medium was changed every 3 days until the cells were utilized for experimentation. Glucose transport activity was measured in the presence or absence of insulin and the protocol was modified from Kletzien, R F et al. (1992) Molecular Pharmacology 41:393-398. Briefly, differentiated 3T3-L1 adipocytes were incubated with vehicle (DMSO), insulin (100 nM) alone, test compound (50 μM) alone and a combination of insulin (100 nM)+test compound (50 μM) for 48 hr. Medium was changed twice a day in the presence of compound. Glucose uptake was measured using 2-Deoxy-D-[1−^3H] glucose as label after 90 min incubation with each compound. […] In the series of compounds, one of the best result was obtained with 7-[2-(5-methyl-2-phenyl-4-oxazolyl)-ethoxy]-chroman-3-carboxylic acid (Example 1).

HF rat = test: Insulin tolerance test (ITT) in HF rat; type: in vivo, Sprague-Dawley rats; settings: 30 mg/kg oral, insulin 0.25 U/kg i.p. 2 hr later
Description: as §2, with “levels. Insulin tolerance test (ITT) was performed in HF rat which were prepared in the same manner with OGTT test animal. On the day of the study, rats were orally dosed with the testing compounds (30 mg/kg) and 2 hr later, rats were dosed with insulin (0.25 U/kg, i.p.) in 0.1% BSA solution in saline. Blood glucose of the rat was measured at 15, 30, 60, 120 min after dose.” for “levels.”

With `Cc1oc(-c2ccccc2)nc1CCOc1ccc2c(c1)OCC(C(=O)O)C2` (centres unmarked) [Example 1, 7-[2-(5-Methyl-2-phenyl-4-oxazolyl)ethoxy]chromane-3-carboxylic acid] the “solubility in 0.5% CMC vehicle” value [1] was “not soluble”, the “AUC of Glucose in db/db, % reduction” value (db/db mice [2]) was 41.5% and the “AUC of Glucose in db/db, Observed value” (db/db mice [2]; control 40858) was 28870 mg/dl × 120 min. The “AUC of Glucose in high fat rat, % reduction” value (high fat (HF) rats) was 13.1%, the “AUC of Glucose in high fat rat, Observed value” (high fat (HF) rats; control 14053) was 12206 mg/dl × 120 min and the “glucose uptake, dose dependence on compound” value ([3]; 0-100 μM compound in the presence of 100 nM insulin (FIG. 2)) was “dose-dependent manner”. For the same compound, the “glucose uptake of insulin in presence of compound” value ([3]; 50 μM compound, 0.1-1,000 nM insulin (FIG. 3)) was “further enhanced glucose uptake of insulin in dose dependent manner”, the “stimulation of basal glucose uptake by compound per se” value ([3]; 3T3-L1 adipocytes, no insulin, 0.1 to 100 μM) was “did not stimulate the basal glucose uptake” and the “blood glucose lowering effect” value (STZ rat) was “did not reduce blood glucose”. The “Fatty acid % reduction” value (db/db mice [4]; plasma) was −33.7%, the Insulin % reduction (db/db mice [4]; plasma) was −62.4% and the “Glucose Max % efficacy” value (db/db mice [4]; suspension in 0.5% CMC + 0.2% Tween 80) was 80.0%. For the same compound, the “Glucose Observed value” (db/db mice [4]; suspension in 0.5% CMC + 0.2% Tween 80, control 261.2) was 132.2 mg/dL, the “Fold Stimulation (50 μM) of 2-deoxy-D-glucose uptake, Insulin + Compound” value ([5]; 50 μM compound + 100 nM insulin) was 8.4 fold and the fold induction at 50 µM ([5]; Mus musculus, 50 μM compound alone, read-out: Fold Stimulation (50 μM) of 2-deoxy-D-glucose uptake, Compound only) was 1.3. The “AUC of Glucose in high fat rat, % reduction” value (HF rat) was 27.7 (p < 0.02) % and the “AUC of Glucose in high fat rat, Observed value” (HF rat; control 13359) was 11014 mg/dl × 120 min.
